Data taken from patent publication US20240317744A1, “Bicyclic Ureas As Kinase Inhibitors” (Incyte Corporation, priority 2023, published 2024).

Experiments:
[1] = molecular target: T1, pseudo-kinase domain (JH2, amino-acids 536-812) of human V617F mutant JAK2 (Homo sapiens, UniProt O60674, F794H/V617F/W659A/W777A); assay: JAK2 LanthaScreen JH2-V617F Binding Assay; conditions: JAK2 JH2-V617F 0.26 nM, 50 nM tracer, 1 hour at 25° C.; read-out: JH2 BIND V617F
T1 construct: pseudo-kinase domain (JH2, amino-acids 536-812 with 3 surface mutations W659A, W777A, F794H); His (C); purchased BPS Bioscience 79498; host or cells: baculovirus expression system
Outline: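 Biotinylated His-Avi-tagged construct, baculovirus-expressed, at 0.26 nM; compounds competed against 50 nM fluorescent JH2 tracer with 0.25 nM streptavidin-Tb in Tris pH 7.5 buffer. Non-specific binding defined with 2 mM ATP. Read after 1 h at 25° C by TR-FRET; IC50 from four-parameter fit.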

[2] = molecular target: T2, pseudo-kinase domain (JH2, amino-acids 536-812) of human Wild Type JAK2 (Homo sapiens, UniProt O60674, F794H/W659A/W777A); assay: JAK2 LanthaScreen JH2-WT Binding Assay; conditions: JAK2 JH2-WT 0.145 nM, 50 nM tracer, 1 hour at 25° C.; read-out: JH2 BIND WT
T2 construct: pseudo-kinase domain (JH2, amino-acids 536-812 with 3 surface mutations W659A, W777A, F794H); His (C); purchased BPS Bioscience 79463; host or cells: baculovirus expression system
Outline: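 Binding was measured by TR-FRET between streptavidin-Tb (0.25 nM) on biotinylated JH2 (0.145 nM) and 50 nM fluorescent tracer, with compound dose series, 1 h at 25° C; IC50 fitted.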

[3] = molecular target: catalytic domain (JH1, amino acids 808-1132) of human JAK2 (Homo sapiens, UniProt O60674); assay: JAK2 HTRF Enzyme Activity Assay; format: biochemical; conditions: ATP 30 µM, 60 minutes at 25° C.; read-out: V617F ENZ 30 UM
[4] = molecular target: T3, catalytic domain (JH1, amino acids 826-1132) of human JAK2 (Homo sapiens, UniProt O60674); assay: JAK2 LanthaScreen JH1 Binding Assay; conditions: JAK2 JH1 1.5 nM, 50 nM tracer, 2 hours at 25° C.; read-out: JH1 BIND
T3 construct: catalytic domain (JH1, amino acids 826-1132) of human JAK2; FLAG (N); biotin (biotinylated); purchased Carna Biosciences 08-445-20N; host or cells: baculovirus expression system
Outline: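 FLAG-tagged, biotinylated JAK2 JH1 (aa 826-1132, baculovirus-expressed; 1.5 nM) incubated 2 h at 25° C with compounds, 50 nM fluorescent tracer and 0.5 nM Streptavidin-Tb in Tris pH 7.5 buffer with MgCl2, Brij-35, BSA, EGTA, glycerol, DTT. Nonspecific binding defined with 2 mM ATP; TR-FRET IC50 from four-parameter fit.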

T2 sequence (O60674 536-812 W659A/W777A/F794H): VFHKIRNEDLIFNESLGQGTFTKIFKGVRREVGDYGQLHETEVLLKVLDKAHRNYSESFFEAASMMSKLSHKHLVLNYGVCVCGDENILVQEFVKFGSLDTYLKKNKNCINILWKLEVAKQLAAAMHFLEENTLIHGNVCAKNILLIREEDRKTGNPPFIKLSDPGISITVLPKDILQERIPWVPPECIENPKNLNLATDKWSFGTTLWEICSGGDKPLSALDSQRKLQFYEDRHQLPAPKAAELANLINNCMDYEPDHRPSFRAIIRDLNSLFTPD
T3 sequence (O60674 826-1132): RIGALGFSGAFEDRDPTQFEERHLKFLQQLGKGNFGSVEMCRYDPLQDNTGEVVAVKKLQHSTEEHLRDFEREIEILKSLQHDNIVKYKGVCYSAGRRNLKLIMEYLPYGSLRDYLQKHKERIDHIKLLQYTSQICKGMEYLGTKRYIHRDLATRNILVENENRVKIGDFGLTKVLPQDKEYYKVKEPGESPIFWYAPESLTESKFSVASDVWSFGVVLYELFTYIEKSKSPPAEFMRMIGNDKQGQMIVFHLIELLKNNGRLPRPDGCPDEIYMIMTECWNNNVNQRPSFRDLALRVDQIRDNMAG
Chain of catalytic domain (JH1, amino acids 808-1132) of human JAK2 (O60674 808-1132 limits assumed): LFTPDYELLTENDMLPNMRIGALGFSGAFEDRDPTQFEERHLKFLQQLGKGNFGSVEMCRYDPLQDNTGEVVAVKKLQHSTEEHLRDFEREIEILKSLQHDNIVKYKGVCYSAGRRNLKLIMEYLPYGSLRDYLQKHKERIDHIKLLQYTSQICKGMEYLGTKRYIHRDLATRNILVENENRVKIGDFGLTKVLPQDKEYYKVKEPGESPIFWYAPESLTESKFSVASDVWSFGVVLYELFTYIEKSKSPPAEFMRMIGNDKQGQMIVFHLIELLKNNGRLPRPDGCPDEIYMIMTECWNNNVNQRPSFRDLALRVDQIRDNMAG
T1 sequence (O60674 536-812 V617F/W659A/W777A/F794H): as the sequence (O60674 536-812 W659A/W777A/F794H) above, with V82F counted along it

| Structure (SMILES) | IC50 [1] [nM] | IC50 [2] [nM] | IC50 [3] [nM] | IC50 [4] [nM] |
| --- | --- | --- | --- | --- |
| [2H]C([2H])([2H])n1c(=O)n([C@@H]2CC[C@@H](NC(=O)OC)C2)c2cc(Nc3cc(-c4cnccc4C(F)(F)F)cc(-c4ccc(C(F)F)s4)n3)ncc21 [Example 154, Methyl ((1R,3R)-3-(6-((6′-(5-(difluoromethyl)thiophen-2-yl)-4-(trifluoromethyl)-[3,4′-bipyridin]-2′-yl)amino)-3-(methyl-d3)-2-oxo-2,3-dihydro-1H-imidazo[4,5-c]pyridin-1-yl)cyclopentyl)carbamate] | ≤ 10 | ≤ 10 | > 1000 | > 1000 |
| [2H]C([2H])([2H])n1c(=O)n([C@]2([2H])CC[C@@H](NC(=O)OC)C2)c2cc(Nc3cc(C(C)(C)O)cc(-c4ncc(C(F)(F)F)s4)n3)ncc21 [Example 156, Methyl ((1R,3R)-3-(6-((4-(2-hydroxypropan-2-yl)-6-(5-(trifluoromethyl)thiazol-2-yl)pyridin-2-yl)amino)-3-(methyl-d3)-2-oxo-2,3-dihydro-1H-imidazo[4,5-c]pyridin-1-yl)cyclopentyl-3-d)carbamate] | ≤ 10 | ≤ 10 | > 1000 | > 1000 |
| [2H]C([2H])([2H])n1c(=O)n([C@@H]2CC[C@@H](NC(=O)OC)C2)c2cc(Nc3cc(C4CCN(C)CC4)cc(-c4ncc(C(F)(F)F)s4)n3)ncc21 [Example 157, Methyl ((1R,3R)-3-(3-(methyl-d3)-6-((4-(1-methylpiperidin-4-yl)-6-(5-(trifluoromethyl)thiazol-2-yl)pyridin-2-yl)amino)-2-oxo-2,3-dihydro-1H-imidazo[4,5-c]pyridin-1-yl)cyclopentyl)carbamate] | ≤ 10 | ≤ 10 | > 1000 | > 1000 |
